From patent US20260297042A1, “BIARYLAMIDE DERIVATIVES AND THEIR USE AS PKMYT1 INHIBITORS” (CANCER RESEARCH TECHNOLOGY LIMITED, priority 2023, published 2026)

Experiments:
WEE1 = molecular target: T1, WEE1 (Homo sapiens, UniProt P30291); experiment: Selectivity versus WEE1 assay (ADP-Glo enzymatic assay); assay type: biochemical; details: for IC50: ADP-Glo; for PKMYT1 vs. WEE1 selectivity: fold difference in selectivity for PKMYT1 over WEE1
T1 construct: purchased Thermo Fisher PR7373A
Method in brief: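 Same format as the PKMYT1 assay: WEE1 at 15 nM final with 30 µM ATP, 60 min at 26° C, ADP-Glo luminescence detection, IC50 by dose-response fitting.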

Human PKMYT1 = molecular target: T2, Human PKMYT1 (Homo sapiens, UniProt Q99640); experiment: PKMYT1 biochemical ADP-Glo enzymatic assay; details: ADP-Glo
T2 construct: Human PKMYT1 75-362 was cloned as a TEV cleavable 6xHis fusion; 6xHis (TEV cleavable) (cleaved yes); made in house; host or cells: bacterial cells
T2 sequence (Q99640 75-362): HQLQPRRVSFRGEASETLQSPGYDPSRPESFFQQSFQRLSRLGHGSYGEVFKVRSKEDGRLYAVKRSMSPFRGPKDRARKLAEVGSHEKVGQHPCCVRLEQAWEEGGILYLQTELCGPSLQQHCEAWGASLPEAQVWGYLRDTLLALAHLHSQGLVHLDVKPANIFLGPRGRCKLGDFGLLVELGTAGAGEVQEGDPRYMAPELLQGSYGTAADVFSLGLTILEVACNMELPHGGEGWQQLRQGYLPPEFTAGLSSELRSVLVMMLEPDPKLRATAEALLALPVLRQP
Method in brief: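 Measures inhibition of PKMYT1 autonomous ATP hydrolysis: bacterially expressed human enzyme (75-362, tag cleaved) at 15 nM with 500 µM ATP for 60 min at 26 °C, then ADP-Glo Max detection. IC50s accepted only when replicates agreed within 3-fold and curve r2 exceeded 0.9.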

[1] = 15 nM WEE1, 60 minutes at 26° C., banded
[2] = banded, ">N" = at least in this band but could be higher
[3] = 15 nM PKMYT1 kinase domain, 500 µM ATP, 60 minutes at 26° C., banded
[4] = PKMYT1 kinase domain 15 nM, banded values

T1 sequence (P30291 whole entry): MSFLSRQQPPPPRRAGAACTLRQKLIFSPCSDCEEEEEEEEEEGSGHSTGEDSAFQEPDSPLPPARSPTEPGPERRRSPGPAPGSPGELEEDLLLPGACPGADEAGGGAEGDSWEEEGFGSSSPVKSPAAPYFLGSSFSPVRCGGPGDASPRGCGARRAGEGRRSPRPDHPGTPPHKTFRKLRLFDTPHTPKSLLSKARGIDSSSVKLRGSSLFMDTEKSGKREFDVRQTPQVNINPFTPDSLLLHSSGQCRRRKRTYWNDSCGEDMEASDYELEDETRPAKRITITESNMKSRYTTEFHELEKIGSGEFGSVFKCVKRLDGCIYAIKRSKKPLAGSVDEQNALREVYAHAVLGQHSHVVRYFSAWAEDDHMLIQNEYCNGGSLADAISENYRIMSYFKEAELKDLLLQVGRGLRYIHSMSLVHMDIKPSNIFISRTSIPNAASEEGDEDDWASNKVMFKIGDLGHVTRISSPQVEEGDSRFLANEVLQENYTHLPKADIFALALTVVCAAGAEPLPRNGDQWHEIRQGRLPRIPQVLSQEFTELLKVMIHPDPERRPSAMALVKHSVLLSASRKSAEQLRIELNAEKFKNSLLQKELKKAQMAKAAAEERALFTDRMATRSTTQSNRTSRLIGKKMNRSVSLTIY

IC50 (WEE1; [1]) [nM]	PKMYT1 vs. WEE1 selectivity (WEE1; [2])	IC50 (Human PKMYT1; [3]) [nM]	IC50 (WEE1; WEE1 15 nM, banded values) [nM]	PKMYT1 vs. WEE1 selectivity (WEE1; banded)	IC50 (Human PKMYT1; [4]) [nM]	SMILES
> 11000	W (10-<100 fold)	1000 to 11000				Cc1ccc(O)c(C)c1NC(=O)c1cnc(Nc2ccc(C(F)(F)F)cc2)s1 [BAA-278, N-(3-hydroxy-2,6-dimethylphenyl)-2-((4-(trifluoromethyl)phenyl)amino)thiazole-5-carboxamide]
> 11000	W (10-<100 fold)	1000 to 11000				Cc1ccc(O)c(C)c1NC(=O)c1cnc(N[C@H](C)c2ccccc2)s1 [BAA-354, (R)-N-(3-hydroxy-2,6-dimethylphenyl)-2-((1-phenylethyl)amino) thiazole-5-carboxamide]
> 11000	>X (100-<1000 fold)	50 to 1000				COCC(=O)N1CC[C@@H](n2ccc(Nc3ncc(C(=O)Nc4c(C)ccc(O)c4C)s3)n2)C1 [BAA-092]
> 11000	>Y (1000-5000 fold)	50 to 1000				CCN(C)C(=O)N1CC[C@@H](n2ccc(Nc3ncc(C(=O)Nc4c(C)ccc(O)c4C)s3)n2)C1 [BAA-111, 2-[[1-[(3R)-1-[Ethyl(methyl)carbamoyl]pyrrolidin-3-yl]pyrazol-3-yl]amino]-N-(3-hydroxy-2,6-dimethyl-phenyl)thiazole-5-carboxamide]
1000 to 11000	X (100-<1000 fold)	< 50				Cc1ccc(O)c(C)c1NC(=O)c1cnc(Nc2ccn(C3CCCCC3)n2)s1 [BAA-015, 2-[(1-cyclohexylpyrazol-3-yl)amino]-N-(3-hydroxy-2,6-dimethyl-phenyl)thiazole-5-carboxamide]
1000 to 11000	W (10-<100 fold)	50 to 1000				Cc1ccc(O)c(C)c1NC(=O)c1cnc(Nc2cc3ccc(O)cn3n2)s1 [BAA-343, N-(3-Hydroxy-2,6-dimethylphenyl)-2-((6-hydroxypyrazolo[1,5-a]pyridin-2-yl)amino)thiazole-5-carboxamide]
			> 11000	X (100-<1000 fold)	50 to 1000	Cc1ccc(O)c(C)c1NC(=O)c1cnc(Nc2ccn(C)n2)o1 [BAA-462, N-(3-Hydroxy-2,6-dimethylphenyl)-2-((1-methyl-1H-pyrazol-3-yl)amino) oxazole-5-carboxamide]
> 11000	Y (1000-5000 fold)	< 50				Cc1ccc(O)c(C)c1NC(=O)c1cnc(Nc2ccn(CC(=O)N3C[C@@H](C)N(C(=O)OC(C)(C)C)[C@@H](C)C3)n2)s1 [BAA-156]
> 11000	Y (1000-5000 fold)	< 50				Cc1cc(Nc2ncc(C(=O)Nc3c(C)ccc(O)c3C)s2)n(CC(C)C)n1 [BAA-238, N-(3-hydroxy-2,6-dimethylphenyl)-2-((1-isobutyl-3-methyl-1H-pyrazol-5-yl)amino)thiazole-5-carboxamide]
> 11000	Y (1000-5000 fold)	< 50				Cc1ccc(O)c(C)c1NC(=O)c1cnc(Nc2ccn(CC(=O)N3CCC(O)CC3)n2)s1 [BAA-132, N-(3-Hydroxy-2,6-dimethyl-phenyl)-2-[[1-[2-(4-hydroxy-1-piperidyl)-2-oxo-ethyl]pyrazol-3-yl]amino]thiazole-5-carboxamide]
> 11000	Y (1000-5000 fold)	50 to 1000				Cc1ccc(O)c(C)c1NC(=O)c1cnc(Nc2nn(C)cc2C(N)=O)s1 [BAA-254, 2-((4-carbamoyl-1-methyl-1H-pyrazol-3-yl)amino)-N-(3-hydroxy-2,6-dimethylphenyl)thiazole-5-carboxamide]
			> 11000	W (10-<100 fold)	50 to 1000	Cc1ccc(O)c(C)c1NC(=O)c1cnc(Nc2ncc(C(C)(C)C)o2)s1 [BAA-449, 2-((5-(tert-butyl)oxazol-2-yl)amino)-N-(3-hydroxy-2,6-dimethylphenyl)thiazole-5-carboxamide]
> 11000	X (100-<1000 fold)	< 50				Cc1ccc(O)c(C)c1NC(=O)c1cnc(Nc2cc(C(=O)O)n(C)n2)s1 [BAA-118, 5-[[5-[(3-hydroxy-2,6-dimethyl-phenyl)carbamoyl]thiazol-2-yl]amino]-2-methyl-pyrazole-3-carboxylic acid]
> 11000	Y (1000-5000 fold)	< 50				Cc1ccc(O)c(C)c1NC(=O)c1cnc(Nc2ccn(CC(=O)N3CCN(C(=O)OC(C)(C)C)CC3)n2)s1 [BAA-140, tert-butyl 4-[2-[3-[5-[(3-hydroxy-2,6-dimethyl-phenyl)carbamoyl]thiazol-2-ylamino]pyrazol-1-yl]acetyl]piperazine-1-carboxylate]
> 11000	X (100-<1000 fold)	50 to 1000				Cc1ccc(O)c(C)c1NC(=O)c1cnc(Nc2cccc(C(=O)N3CC(F)(F)C(F)(F)C3)c2)s1 [BAA-261, N-(3-hydroxy-2,6-dimethylphenyl)-2-((3-(3,3,4,4-tetrafluoropyrrolidine-1-carbonyl)phenyl)amino)thiazole-5-carboxamide]
> 11000	W (10-<100 fold)	1000 to 11000				Cc1ccc(O)c(C)c1NC(=O)c1cnc(Nc2nn(C)c3c2CCCC3)s1 [BAA-246, N-(3-hydroxy-2,6-dimethylphenyl)-2-((1-methyl-4,5,6,7-tetrahydro-1H-indazol-3-yl)amino)thiazole-5-carboxamide]
1000 to 11000	X (100-<1000 fold)	< 50				Cc1cn(Cc2ncco2)nc1Nc1ncc(C(=O)Nc2c(C)ccc(O)c2C)s1 [BAA-366, N-(3-hydroxy-2,6-dimethylphenyl)-2-((4-methyl-1-(oxazol-2-ylmethyl)-1H-pyrazol-3-yl)amino) thiazole-5-carboxamide]
> 11000	>X (100-<1000 fold)	50 to 1000				Cc1ccc(O)c(C)c1NC(=O)c1cnc(Nc2ccn(CC(=O)N3CCN(CC(F)(F)F)CC3)n2)s1 [BAA-184]
> 11000	>Y (1000-5000 fold)	50 to 1000				Cc1ccc(O)c(C)c1NC(=O)c1cnc(Nc2ccn([C@@H]3CCN(C(=O)C(C)C)C3)n2)s1 [BAA-086]
> 11000	W (10-<100 fold)	1000 to 11000				Cc1nnc(Nc2ncc(C(=O)Nc3c(C)ccc(O)c3C)s2)o1 [BAA-258, N-(3-hydroxy-2,6-dimethylphenyl)-2-((5-methyl-1,3,4-oxadiazol-2-yl)amino)thiazole-5-carboxamide]
> 11000	>X (100-<1000 fold)	50 to 1000				Cc1ccc(O)c(C)c1NC(=O)c1cnc(Nc2ccn([C@@H]3CCN(C(=O)Cn4cccn4)C3)n2)s1 [BAA-103, N-(3-hydroxy-2,6-dimethyl-phenyl)-2-[1-[(3R)-1-(2-pyrazol-1-ylacetyl)pyrrolidin-3-yl]pyrazol-3-yllamino]thiazole-5-carboxamide]
			1000 to 11000	X (100-<1000 fold)	< 50	Cc1conc1Nc1ncc(C(=O)Nc2c(C)ccc(O)c2C)s1 [BAA-440, N-(3-hydroxy-2,6-dimethylphenyl)-2-((4-methylisoxazol-3-yl)amino)thiazole-5-carboxamide]
> 11000	W (10-<100 fold)	1000 to 11000				Cc1ccc(O)c(C)c1NC(=O)c1cnc(N[C@@H](C)c2ccccc2)s1 [BAA-351, (S)-N-(3-hydroxy-2,6-dimethylphenyl)-2-((1-phenylethyl)amino) thiazole-5-carboxamide]
			> 11000	X (100-<1000 fold)	< 50	Cn1cc(Br)c(Nc2ncc(C(=O)Nc3c(F)ccc(O)c3Cl)s2)n1 [BAA-472, 2-((4-Bromo-1-methyl-1H-pyrazol-3-yl)amino)-N-(2-chloro-6-fluoro-3-hydroxyphenyl)thiazole-5-carboxamide]
			> 11000	Y (1000-5000 fold)	50 to 1000	Cc1ccc(O)c(C)c1NC(=O)c1cnc(Nc2cccc3ccoc23)s1 [BAA-531, 2-(benzofuran-7-ylamino)-N-(3-hydroxy-2,6-dimethylphenyl)thiazole-5-carboxamide]
> 11000	Y (1000-5000 fold)	< 50				Cc1ccc(O)c(C)c1NC(=O)c1cnc(Nc2ccn(CC(=O)N3CCN(C4CC4)CC3)n2)s1 [BAA-182, 2-[[1-[2-(4-cyclopropylpiperazin-1-yl)-2-oxo-ethyl]pyrazol-3-yl]amino]-N-(3-hydroxy-2,6-dimethyl-phenyl)thiazole-5-carboxamide]
> 11000	Y (1000-5000 fold)	< 50				Cc1ccc(O)c(C)c1NC(=O)c1cnc(Nc2ccn(CC(=O)N[C@H](C)CO)n2)s1 [BAA-164]
